# Assay results from patent US20050049202A1, “Benzoic acid derivatives and uses thereof” (priority 2000, published 2005).
# How the values were obtained:
# [1] = system: THP-1 clone No. 53 (containing pGL2-Control); assay: Luciferase reporter gene assay, control clone No. 53; type: cell-based; settings: control clone 53
# Description: (§1) One method for identifying a the ability of a compound of the present invention to induce mRNA degradation, comprises i) contacting the compound with a DNA expression system which in the absence of the compound is capable of expressing a protein having a detectable signal, wherein the mRNA which codes for the protein and which is transcribed from the expression system comprises at least one copy of a mRNA instability sequence; ii) measuring the detectable signal in the presence of the test compound and comparing the result obtained with a control. A related method can be used to compare compounds which induce mRNA degradation. This method comprises separately contacting the compounds with a DNA expression system which in the absence of the compounds is capable of expressing a protein having a detectable signal, wherein the mRNA which codes for the protein and which is transcribed from the expression system comprises at least one copy of a mRNA instability sequence, measuring the detectable signal in the presence of each test compound and comparing the signals obtained.
# (§2) The THP-1 cell lines, clone No. 63 (containing PGL2_Neo30) and clone No. 53 (containing pGL2-Control) are grown, differentiated and stimulated with IFN-γ and LPS identical to normal THP-1 cells (for details see WO 00/39314). Compound is added 16 hrs after the addition of LPS and cell extracts are then taken 8 hrs later or as indicated. Luciferase activity was inhibited by 1 μM benzoic acid derivative on average by 40%, whereas up to 5 μM of benzoic acid derivative had no effects on the control clone No. 53.
# [2] = system: THP-1 clone No. 63 (containing PGL2_Neo30); assay: Luciferase reporter gene assay for compounds which destabilize mRNA, clone No. 63; type: cell-based; settings: clone 63
# Description: as §1, §2
smiles,measurement,setting,value
COc1cccc(C)c1C(=O)OC[C@@H]1C=CC(=O)O1,Luciferase reporter gene assay (% control),[1]; 0.5 μM,89 % control
same,Luciferase reporter gene assay (% control),[1]; 1 μM,93 % control
same,Luciferase reporter gene assay (% control),[1]; 5 μM,99 % control
same,Luciferase reporter gene assay (% control),[2]; 0.5 μM,85 % control
same,Luciferase reporter gene assay (% control),[2]; 1 μM,79 % control
same,Luciferase reporter gene assay (% control),[2]; 5 μM,29 % control
